Key:
Escherichia coli [1] = assay: Activity of Escherichia coli beta-lactamase VIM-1 by spectrophotometry
Escherichia coli [2] = assay: Ratio of Kcat to Km for Escherichia coli beta-lactamase VIM-1 by spectrophotometry

CC(=O)OCC1=C(C(=O)O)N2C(=O)[C@@H](NC(=O)Cc3cccs3)[C@H]2SC1
Km (Escherichia coli [1]): 55 µM | kcat (Escherichia coli [1]): 280 s⁻¹ | kcat/Km (Escherichia coli [2]): 5.1e+06 M⁻¹ s⁻¹

CC(C)(O/N=C(\C(=O)N[C@@H]1C(=O)N2C(C(=O)[O-])=C(C[n+]3ccccc3)CS[C@H]12)c1csc(N)n1)C(=O)O
Km (Escherichia coli [1]): 800 µM | kcat (Escherichia coli [1]): 60 s⁻¹ | kcat/Km (Escherichia coli [2]): 75000 M⁻¹ s⁻¹

CC1(C)S[C@@H]2[C@H](NC(=O)C(C(=O)O)c3ccccc3)C(=O)N2[C@H]1C(=O)O (some centres undefined)
Km (Escherichia coli [1]): 75 µM | kcat (Escherichia coli [1]): 170 s⁻¹ | kcat/Km (Escherichia coli [2]): 2.3e+06 M⁻¹ s⁻¹

CC1(C)S[C@@H]2[C@H](NC(=O)Cc3ccccc3)C(=O)N2[C@H]1C(=O)O
Km (Escherichia coli [1]): 840 µM | kcat/Km (Escherichia coli [2]): 36000 M⁻¹ s⁻¹

CC1(C)S[C@@H]2[C@H](NC(=O)[C@H](N)c3ccccc3)C(=O)N2[C@H]1C(=O)O
Km (Escherichia coli [1]): 920 µM | kcat (Escherichia coli [1]): 35 s⁻¹ | kcat/Km (Escherichia coli [2]): 38000 M⁻¹ s⁻¹

CC1(C)S[C@@H]2[C@H](NC(=O)[C@H](NC(=O)N3CCNC3=O)c3ccccc3)C(=O)N2[C@H]1C(=O)O
Km (Escherichia coli [1]): 120 µM | kcat (Escherichia coli [1]): 1500 s⁻¹ | kcat/Km (Escherichia coli [2]): 1.25e+07 M⁻¹ s⁻¹

CC1(C)[C@H](C(=O)O)N2C(=O)C[C@H]2S1(=O)=O
Km (Escherichia coli [1]): 200 µM | kcat (Escherichia coli [1]): 10 s⁻¹ | kcat/Km (Escherichia coli [2]): 50000 M⁻¹ s⁻¹

CCN1CCN(C(=O)N[C@@H](C(=O)N[C@@H]2C(=O)N3[C@@H]2SC(C)(C)[C@@H]3C(=O)O)c2ccccc2)C(=O)C1=O
Km (Escherichia coli [1]): 3500 µM | kcat (Escherichia coli [1]): 1900 s⁻¹ | kcat/Km (Escherichia coli [2]): 540000 M⁻¹ s⁻¹

CO/N=C(\C(=O)N[C@@H]1C(=O)N2C(C(=O)O)=C(COC(C)=O)CS[C@H]12)c1csc(N)n1
Km (Escherichia coli [1]): 250 µM | kcat (Escherichia coli [1]): 170 s⁻¹ | kcat/Km (Escherichia coli [2]): 680000 M⁻¹ s⁻¹

CO/N=C(\C(=O)N[C@@H]1C(=O)N2C(C(=O)O)=C(COC(N)=O)CS[C@H]12)c1ccco1
Km (Escherichia coli [1]): 42 µM | kcat (Escherichia coli [1]): 325 s⁻¹ | kcat/Km (Escherichia coli [2]): 7.7e+06 M⁻¹ s⁻¹

Reference: ChEMBL document CHEMBL1275486, “Kinetic characterization of VIM-7, a divergent member of the VIM metallo-beta-lactamase family” (Antimicrob Agents Chemother, 2008)
